Holding throughout (assay type): functional
The test system of one test is SF-268. Kind of test: Cytotoxicity against Homo sapiens (human) SF268 assessed as cell growth at 10^-4 M after 48 hr by Alamar Blue assay. The settings on record: SF-268, 48 h, read-out: Activity.
A further test concerns MCF7. Kind of test: Cytotoxicity against Homo sapiens (human) MCF7 assessed as cell growth at 10^-4 M after 48 hr by Alamar Blue assay. To be noted: MCF7, 48 h, read-out: Activity.
For the next test, the system named is NCI-H460. Kind of test: Cytotoxicity against Homo sapiens (human) NCI-H460 assessed as cell growth at 10^-4 M after 48 hr by Alamar Blue assay. To be noted: NCI-H460, 48 h, read-out: Activity.

`COc1ccc(C2=NOC3=c4ccccc4=CSC3=C2c2ccccc2)cc1`: the growth at 100 µM came out at 106% in the test on SF-268, 97% with MCF7 and 101% in the test with NCI-H460.
Regarding `Cc1ccc(C2=NOC3=c4ccccc4=CSC3=C2c2ccc([N+](=O)[O-])cc2)cc1`, the growth at 100 µM in the test on SF-268 was 111%; with MCF7, 99%; in the test on NCI-H460, 97%.
Take `O=[N+]([O-])c1ccc(C2=NOC3=c4ccccc4=CSC3=C2c2ccccc2)cc1`: the growth at 100 µM with SF-268 amounted to 101%; in the test with MCF7, 62%; with NCI-H460 it was 100%.
As for `Cc1ccc(C2=NOC3=c4ccccc4=CSC3=C2c2ccccc2)cc1`, the results for the growth at 100 µM in the test on SF-268, in the test with MCF7 and with NCI-H460 were 66%, 51% and 92%, respectively.
Consider `COc1ccc(C2=C3SC=c4ccccc4=C3ON=C2c2ccc(Cl)cc2)cc1`, for which the growth at 100 µM in the test on SF-268 stood at 102%; in the test on MCF7, 51%; in the test on NCI-H460, 85%.
Take `COc1ccc(C2=NOC3=c4ccccc4=CSC3=C2c2ccc(OC)cc2)cc1`: the growth at 100 µM turned out to be 105% with SF-268, 116% in the test on MCF7 and 102% with NCI-H460.
Turning to `O=[N+]([O-])c1ccc(C2=C3SC=c4ccccc4=C3ON=C2c2ccc(Cl)cc2)cc1`, the growth at 100 µM came out at 104% with SF-268, 85% in the test with MCF7 and 97% with NCI-H460.
Turning to `Cc1ccc(C2=C3SC=c4ccccc4=C3ON=C2c2ccccc2)cc1`, the growth at 100 µM stood at 69% in the test on SF-268, 41% with MCF7 and 94% with NCI-H460.
Take `C1=c2ccccc2=C2ON=C(c3ccccc3)C(c3ccccc3)=C2S1`: the growth at 100 µM in the test with SF-268 worked out at 97%; with MCF7 it was 104%; in the test on NCI-H460, 94%.
On to `COc1ccc(C2=NOC3=c4ccccc4=CSC3=C2c2ccc(C)cc2)cc1`, for which the growth at 100 µM is 97% in the test on SF-268, 86% in the test on MCF7 and 96% in the test on NCI-H460.
As for `Clc1ccc(C2=NOC3=c4ccccc4=CSC3=C2c2ccccc2)cc1`, the growth at 100 µM in the test on SF-268 worked out at 95%; in the test on MCF7, 95%; in the test with NCI-H460, 92%.
`COc1ccc(C2=C3SC=c4ccccc4=C3ON=C2c2ccc(C)cc2)cc1`: the growth at 100 µM stood at 103% with SF-268, 98% in the test with MCF7 and 84% in the test with NCI-H460.
With `Cc1ccc(C2=C3SC=c4ccccc4=C3ON=C2c2ccc([N+](=O)[O-])cc2)cc1`, the figures for the growth at 100 µM with SF-268, with MCF7 and in the test on NCI-H460 were 83%, 97% and 99%, respectively.
